Like-named read-outs stand apart in the source and are kept apart here.
Columns and labels:
Format in all cases: cell-based
[1] = system: MOLT-4; assay: CellTiterGlo cell viability assay, MOLT-4; conditions: MOLT-4, 72 h; for EC50: read-out: Ab EC50
Method in brief: (§1)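 72 h CTG viability; 9-pt, 3.16-fold titration, 198 μM top to 19.8 nM final; duplicates; 0.5% DMSO final; standard growth conditions. Read-out: absolute EC50 and % inhibition at highest concentration.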

[2] = system: KG1a LSCs and bulk tumour cells; assay: γH2A.X phosphorylation assay (DNA damage) in purified LSCs and bulk tumour cells; conditions: 2-hour exposure, hypoxic conditions (5% O2), in words
Experimental: KG1a cells were grown under hypoxic conditions for 7 days in order to generate 10^7 cells and increase the percentage of cells expressing an LSC phenotype. Subsequently, Lin^−/CD34^+/CD38^−/CD123^+ LSCs and Lin^−/CD34^+/CD38^+/CD123^+ ‘bulk’ tumour cells were purified by high speed cell sorting using a FACS Melody cell sorter (Becton Dickenson) and were placed back into hypoxic cell culture conditions prior to the addition of clofarabine or clofarabine diphosphate phosphoramidates.
Phosphorylation of the histone variant γH2A.X occurs as a rapid response to double strand DNA breaks. The γH2A.X Phosphorylation Assay Kit (Flow cytometry) is a cell-based assay formatted for flow cytometric detection of levels of phosphorylated Histone γH2A.X (Merck, UK). LSC and ‘bulk tumour’ cells were cultured in 96-well plates in the presence of clofarabine or clofarabine diphosphate phosphoramidates. After 2 h of exposure to drug, the cells were harvested by centrifugation and then fixed and permeabilised in preparation for staining and detection. Histone γH2A.X phosphorylated at serine 139 is detected by the addition of the anti-phospho-Histone γH2A.X conjugated to APC. Cells were then run on a flow cytometer to quantitate the number of cells staining positive for phosphorylated Histone γH2A.X.

[3] = system: HL-60; assay: CellTiterGlo cell viability assay, HL-60; conditions: HL-60, 72 h; for EC50: read-out: Ab EC50
Method in brief: as §1

[4] = Homo sapiens, percentage inhibition at the highest concentration tested, read-out: Top Inh

Nc1nc(Cl)nc2c1ncn2[C@@H]1O[C@H](CO)[C@@H](O)[C@@H]1F [Clofarabine, reference compound]
inhibition at 198 µM [1, 4]: 84.1%
EC50 ([1]; Homo sapiens, Table 3 classes): < 0.2 µM
EC50 ([1]; Table 4 classes): < 0.2 µM
DNA damage in LSCs compared with bulk tumour cells (γH2A.X phosphorylation) [2]: level of DNA damage in the LSCs was significantly lower than the bulk tumour cells
EC50 ([3]; Table 4 classes): < 0.2 µM
EC50 ([3]; Homo sapiens, Table 3 classes): < 0.2 µM
inhibition at 198 µM [3, 4]: 97%
